Among the test systems are HCC-2998 colon; MDA-N; NCI-H23 lung; NCI-H522 lung; OVCAR-8 ovarian; RXF 393 renal; SK-MEL-28 melanoma; SNB-75 CNS; T-47D breast; UO-31 renal.
Assay in all cases: DTP human tumour cell line panel, 48 h

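Exposure lasted 48 hours, with cells grown in 96-well plates and compounds tested at five concentrations. GI50 = concentration required for 50% inhibition of growth. TGI: concentration producing complete growth inhibition.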

The TGI is the concentration giving total growth inhibition. Read a high TGI as lower sensitivity of the cells. The GI50 is the concentration at which growth is held to half of that of the control.

For `O=C(/C=C\Nc1ccccc1O)C(F)(F)F`, the TGI in the experiment on HCC-2998 colon, in the experiment on MDA-N, with NCI-H23 lung, in the experiment on NCI-H522 lung, with OVCAR-8 ovarian and with RXF 393 renal was above 100 µM in each case. For the same compound, the concentration for total growth inhibition (TGI) in the experiment on SK-MEL-28 melanoma, in the experiment with SNB-75 CNS, in the experiment with T-47D breast and in the experiment with UO-31 renal was above 100 µM in each case.

As to `O=C1CC(c2ccccc2Cl)C2(C(=O)NC(=O)NC2=O)C(c2ccccc2Cl)C1` (configuration not stated), the TGI in the experiment on HCC-2998 colon was above 100 µM; in the experiment with MDA-N, above 100 µM; with NCI-H23 lung, above 100 µM; in the experiment with NCI-H522 lung, above 100 µM; with OVCAR-8 ovarian it was above 100 µM; with RXF 393 renal, 85.2 µM. The TGI in the experiment on SK-MEL-28 melanoma is above 100 µM; in the experiment with SNB-75 CNS, above 100 µM; in the experiment with T-47D breast, 78.2 µM; in the experiment on UO-31 renal, above 100 µM.

Turning to `Cc1ccc2c(c1C)CC1(Cc3c(C)ccc(C)c3C1=O)C2=O` (configuration not stated), the TGI with HCC-2998 colon, in the experiment on MDA-N, in the experiment on NCI-H23 lung, in the experiment on NCI-H522 lung, in the experiment with OVCAR-8 ovarian and in the experiment with RXF 393 renal was above 100 µM throughout. The TGI in the experiment with SK-MEL-28 melanoma, in the experiment on SNB-75 CNS, with T-47D breast and with UO-31 renal was above 100 µM in each case.

For the compound `CC1CCc2sc3nc4n(c(=O)c3c2C1)CC(C)S4` (configuration not stated), the TGI in the experiment with HCC-2998 colon is 42 µM; in the experiment with MDA-N, 92.8 µM; in the experiment with NCI-H23 lung, above 100 µM; in the experiment with NCI-H522 lung, above 100 µM; in the experiment on OVCAR-8 ovarian, above 100 µM; in the experiment with RXF 393 renal it was 55.2 µM. In addition, the concentration for total growth inhibition (TGI) was 83.1 µM in the experiment on SK-MEL-28 melanoma, 62.4 µM with SNB-75 CNS, above 100 µM with T-47D breast and 7.51 µM in the experiment with UO-31 renal.

For the compound `Clc1cc(C(c2cc(Cl)sc2Cl)c2cc(Cl)sc2Cl)c(Cl)s1`, the TGI in the experiment on HCC-2998 colon, with MDA-N, with NCI-H23 lung, with NCI-H522 lung, in the experiment with OVCAR-8 ovarian and in the experiment with RXF 393 renal was above 100 µM each time. Also, the TGI in the experiment with SK-MEL-28 melanoma, in the experiment on SNB-75 CNS, in the experiment on T-47D breast and with UO-31 renal was above 100 µM each time.

For the compound `COCC#C[C@@]1(O)CCCCC1CC(OC)OC` (some centres not stated), the TGI in the experiment with HCC-2998 colon is above 100 µM; in the experiment with MDA-N, above 100 µM; in the experiment with NCI-H23 lung, above 100 µM; in the experiment on NCI-H522 lung, 82.5 µM; in the experiment with OVCAR-8 ovarian, above 100 µM; in the experiment on RXF 393 renal, above 100 µM. For the same compound, the TGI with SK-MEL-28 melanoma, in the experiment with SNB-75 CNS, with T-47D breast and with UO-31 renal was above 100 µM in each case.

Turning to `C#CCOCC12C=CC(O1)C1COC(=O)C12` (configuration not stated), the TGI with HCC-2998 colon, with MDA-N, with NCI-H23 lung, in the experiment with NCI-H522 lung, with OVCAR-8 ovarian and with RXF 393 renal was above 100 µM throughout. Moreover, the TGI with SK-MEL-28 melanoma, in the experiment with SNB-75 CNS, in the experiment with T-47D breast and in the experiment on UO-31 renal was above 100 µM each time.

`C=C1C[C@@H]2CC[C@@]34C[C@H]5O[C@H]6[C@@H](O3)[C@H]3O[C@H](CC[C@@H]3O[C@H]6[C@H]5O4)CC(=O)C[C@@H]3[C@@H](OC)[C@@H](C[C@H](O)CN)O[C@H]3C[C@H]3O[C@@H](CC[C@@H]1O2)C[C@@H](C)C3=C`: the TGI was 0.096 µM in the experiment with HCC-2998 colon; 0.000354 µM in the experiment on MDA-N; 0.173 µM in the experiment with NCI-H23 lung; 0.0412 µM with NCI-H522 lung; 0.167 µM in the experiment with OVCAR-8 ovarian; above 1 µM in the experiment with SK-MEL-28 melanoma. Besides, the TGI with SNB-75 CNS, in the experiment with T-47D breast and in the experiment on UO-31 renal was above 1 µM each time. Besides, the GI50 with MDA-N was 0.0001 µM; in the experiment with RXF 393 renal, 0.00255 µM; with SNB-75 CNS, 0.00046 µM.

For the compound `COc1cc2[nH]c(=O)c3cc(-c4ccccc4)cc4c(Cl)nc(c1OC)c2c43`, the TGI in the experiment with HCC-2998 colon is above 86.4 µM; in the experiment with MDA-N it was 13.5 µM; in the experiment with NCI-H23 lung, 47.5 µM; with NCI-H522 lung it was above 89.2 µM; in the experiment with OVCAR-8 ovarian, 98.4 µM; with RXF 393 renal, above 55.7 µM. For the same compound, the TGI is above 100 µM with SK-MEL-28 melanoma, above 60.3 µM with SNB-75 CNS, above 100 µM with T-47D breast and above 65.1 µM in the experiment on UO-31 renal.

In the case of `O=C(O)C1=NN(c2ccc(S(=O)(=O)O)cc2)C2(C1)C(Cl)C(=O)N2c1nc2ccccc2s1` (configuration not stated), the TGI in the experiment on HCC-2998 colon turned out to be 33.4 µM; in the experiment with MDA-N, 53.1 µM; in the experiment on NCI-H23 lung, 30.2 µM; with NCI-H522 lung it was 25.8 µM; in the experiment with OVCAR-8 ovarian, 38.8 µM; in the experiment on RXF 393 renal, 34.8 µM. The TGI came out at 46.3 µM in the experiment on SK-MEL-28 melanoma, 30.7 µM in the experiment with SNB-75 CNS, 44.8 µM in the experiment with T-47D breast and 22.9 µM with UO-31 renal.

The record behind these values is PubChem BioAssay (NCI).
